Laboratory results from patent publication US20230027361A1, “METTL3 MODULATORS” (priority 2019, published 2023).
Where two headings read alike, the source gives them in different places.

How the values were obtained:
METTL16 = biological target: T1, METTL16 (Homo sapiens, UniProt Q86W50); assay: METTL16 Assay (METTL16 biochemical assay); conditions: read-out: METTL16 IC50
T1 sequence (Q86W50 1-562): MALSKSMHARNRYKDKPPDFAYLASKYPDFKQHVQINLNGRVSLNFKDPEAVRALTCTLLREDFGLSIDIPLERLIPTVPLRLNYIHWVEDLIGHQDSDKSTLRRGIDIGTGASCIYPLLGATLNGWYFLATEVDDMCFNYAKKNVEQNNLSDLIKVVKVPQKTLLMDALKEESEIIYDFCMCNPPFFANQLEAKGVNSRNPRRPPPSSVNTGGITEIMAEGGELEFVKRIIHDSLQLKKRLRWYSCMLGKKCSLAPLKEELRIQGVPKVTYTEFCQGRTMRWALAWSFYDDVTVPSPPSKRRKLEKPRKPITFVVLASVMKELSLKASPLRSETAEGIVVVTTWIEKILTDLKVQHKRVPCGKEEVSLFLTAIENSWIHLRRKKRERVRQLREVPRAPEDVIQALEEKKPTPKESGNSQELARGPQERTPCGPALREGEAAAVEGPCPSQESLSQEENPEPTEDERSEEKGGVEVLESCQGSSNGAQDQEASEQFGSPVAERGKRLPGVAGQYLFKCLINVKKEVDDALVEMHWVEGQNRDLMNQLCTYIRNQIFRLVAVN
Description: Assays were performed in a 25 μl-volume in 384-well V-bottom polypropylene microplates (Greiner Bio-One, cat. No. 781280) at ambient temperature. Optimized 1× assay buffer was 20 mM HEPES pH 7.5, 50 mM KCl, 1 mM DTT, 0.01% Tween, 0.01% BSG, 0.004 U/μl RNAseOUT (cat. No. 10777019, ThermoFisher Scientific, Waltham, Mass.). For compound screening METTL16 (final concentration, f.c.=100 nM) was added using a Multidrop Combi (ThermoFisher Scientific, Waltham, Mass.) and preincubated for 5 min. Reactions were started by adding 3′ biotinylated RNA ([…]-biotin) (f.c.=50 nM), 3H-SAM (f.c.=200 nM) and non-radiolabeled SAM (f.c.=800 nM) substrates. Reactions proceeded for 20 minutes and were quenched with excess non-radioactive SAM (f.c.=100 μM). The reactions were then transferred to streptavidin-coated flashplates and incubated for 2 hours at 25° C. Following two washing cycles with 0.1% Tween-20, the plates were sealed and read on a TopCount (PerkinElmer, Waltham, Mass.) plate-based scintillation counter. For determination of kinetic parameters, reaction times were optimized so that measurements were taken during the initial velocity phase of the reaction.

[1] = system: m6A in cellular mRNA of MOLM-13 cells; assay: m6A-mRNA LC-MS/MS Assay (m6A cellular assay); format: cell-based; conditions: Homo sapiens, MOLM-13, read-out: m^6A IC50
Description: Cells were harvested by centrifugation followed by mRNA extraction using DIRECT Dynabeads mRNA DIRECT kit (Life Technologies). mRNA was quantified on NanoDrop spectrophotometer (Thermo Fisher Scientific) and digested into single nucleosides using Nucleoside Digestion Mix (New England Biolabs). […] Quantification is performed in comparison with the standard curve, obtained from pure nucleoside standards (Selleck Chemicals) running with the same batch of samples. Percentage m^6A in cellular mRNA is calculated as 100*(m^6A/A).

MOLM-13 cells [2] = assay: MOLM-13 48 Hour Cell Proliferation Assay; format: cell-based; conditions: Homo sapiens
Procedure, shortened: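 IC50 derived by 4-parameter logistic regression of CellTiter-Glo luminescence, scaled between DMSO (0% death) and staurosporine (100% death) controls. Compounds applied for 48 h at 37 °C as 10-point, 4-fold dilutions, 0.25% DMSO final, to MOLM-13 cells pre-seeded overnight in RPMI 1640 plus 10% FBS.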

METTL3/METTL14 = METTL3/METTL14 (Homo sapiens, UniProt Q86U44); assay: METTL3-14 Standard Enzyme Assay (METTL3 biochemical assay)
METTL3/METTL14, sequence (Q86U44 whole entry, species assumed): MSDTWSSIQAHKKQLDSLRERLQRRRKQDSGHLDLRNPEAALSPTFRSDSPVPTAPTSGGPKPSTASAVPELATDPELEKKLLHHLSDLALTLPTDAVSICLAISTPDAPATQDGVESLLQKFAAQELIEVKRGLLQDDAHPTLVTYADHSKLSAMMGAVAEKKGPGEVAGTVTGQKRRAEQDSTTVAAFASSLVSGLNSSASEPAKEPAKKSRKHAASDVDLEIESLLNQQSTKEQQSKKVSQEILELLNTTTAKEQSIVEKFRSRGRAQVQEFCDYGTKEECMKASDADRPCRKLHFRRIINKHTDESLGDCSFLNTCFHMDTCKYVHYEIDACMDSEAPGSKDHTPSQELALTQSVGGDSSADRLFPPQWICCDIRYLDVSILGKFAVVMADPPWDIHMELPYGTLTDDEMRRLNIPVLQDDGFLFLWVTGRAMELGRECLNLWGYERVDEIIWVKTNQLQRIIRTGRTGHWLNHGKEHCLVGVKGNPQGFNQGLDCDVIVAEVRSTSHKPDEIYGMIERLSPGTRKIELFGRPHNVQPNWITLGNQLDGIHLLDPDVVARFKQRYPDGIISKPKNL
METTL3/METTL14, sequence (Q9HCE5 whole entry partner, species assumed): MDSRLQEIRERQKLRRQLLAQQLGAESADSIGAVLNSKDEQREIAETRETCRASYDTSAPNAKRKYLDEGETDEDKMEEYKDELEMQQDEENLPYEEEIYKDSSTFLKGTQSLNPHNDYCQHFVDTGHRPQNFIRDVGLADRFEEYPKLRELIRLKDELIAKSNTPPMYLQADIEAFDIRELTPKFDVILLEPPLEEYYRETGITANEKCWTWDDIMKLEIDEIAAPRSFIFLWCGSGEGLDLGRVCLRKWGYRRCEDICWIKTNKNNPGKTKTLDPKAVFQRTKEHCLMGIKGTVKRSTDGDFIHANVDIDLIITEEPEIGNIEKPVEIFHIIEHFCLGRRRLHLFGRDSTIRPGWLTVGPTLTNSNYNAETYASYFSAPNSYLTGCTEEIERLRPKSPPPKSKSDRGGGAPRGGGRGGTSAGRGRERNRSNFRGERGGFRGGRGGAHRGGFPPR
Procedure, shortened: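 Tritium transfer from ³H-SAM (100 nM) to biotinylated RNA (100 nM) captured on streptavidin flashplates and counted by scintillation. Enzyme complex (2.5 nM) with compound, 5 min preincubation, 30 min reaction at ambient temperature, HEPES pH 7.5 buffer, stopped by excess unlabeled SAM.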

PRMT5-MEP50 = PRMT5-MEP50 (Homo sapiens, UniProt O14744); assay: PRMT5 Assay (PRMT5 biochemical assay)
PRMT5-MEP50, sequence (O14744 whole entry): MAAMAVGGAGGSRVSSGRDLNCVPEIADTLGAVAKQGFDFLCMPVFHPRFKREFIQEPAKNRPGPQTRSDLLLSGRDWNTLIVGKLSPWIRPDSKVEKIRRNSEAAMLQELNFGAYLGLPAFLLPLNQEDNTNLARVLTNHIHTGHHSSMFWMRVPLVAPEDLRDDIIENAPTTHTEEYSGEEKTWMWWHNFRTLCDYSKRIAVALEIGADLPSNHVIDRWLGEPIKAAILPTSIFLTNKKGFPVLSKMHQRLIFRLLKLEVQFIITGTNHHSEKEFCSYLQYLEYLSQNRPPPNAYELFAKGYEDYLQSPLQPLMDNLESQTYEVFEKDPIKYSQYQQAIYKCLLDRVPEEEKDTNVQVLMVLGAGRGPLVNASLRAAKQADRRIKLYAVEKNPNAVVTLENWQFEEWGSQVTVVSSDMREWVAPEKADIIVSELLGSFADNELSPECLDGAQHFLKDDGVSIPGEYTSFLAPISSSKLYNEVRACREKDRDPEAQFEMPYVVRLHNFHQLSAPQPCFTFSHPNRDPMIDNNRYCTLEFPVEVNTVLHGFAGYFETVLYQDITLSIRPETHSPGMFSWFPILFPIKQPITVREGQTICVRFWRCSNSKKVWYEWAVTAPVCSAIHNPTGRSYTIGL
PRMT5-MEP50, sequence (Q9BQA1 whole entry partner): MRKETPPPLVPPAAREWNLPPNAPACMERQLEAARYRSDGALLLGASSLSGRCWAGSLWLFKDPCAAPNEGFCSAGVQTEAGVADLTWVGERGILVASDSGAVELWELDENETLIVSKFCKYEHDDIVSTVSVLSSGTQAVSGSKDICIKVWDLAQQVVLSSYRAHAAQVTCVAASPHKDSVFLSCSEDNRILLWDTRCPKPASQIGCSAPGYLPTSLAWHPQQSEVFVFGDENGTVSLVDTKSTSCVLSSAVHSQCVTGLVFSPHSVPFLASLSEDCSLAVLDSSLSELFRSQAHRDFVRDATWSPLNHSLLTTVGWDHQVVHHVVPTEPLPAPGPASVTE
Procedure, shortened: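 Radiometric methyltransferase read-out: after 60 min reaction, excess unlabelled SAM (15 μM) stops turnover and biotinylated H4 peptide (100 nM) carrying 3H-methyl from 250 nM 3H-SAM is captured on streptavidin flashplates (2 h, 25° C) for scintillation counting. Enzyme, 2.5 nM PRMT5-MEP50, was preincubated 5 min with compound in pH 8.0 Tris buffer with DTT and Tween.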

METTL1/WDR4 = METTL1/WDR4 (Homo sapiens, UniProt Q9UBP6); assay: METTL1 Assay (METTL1 biochemical assay)
METTL1/WDR4, sequence (Q9UBP6 whole entry, species assumed): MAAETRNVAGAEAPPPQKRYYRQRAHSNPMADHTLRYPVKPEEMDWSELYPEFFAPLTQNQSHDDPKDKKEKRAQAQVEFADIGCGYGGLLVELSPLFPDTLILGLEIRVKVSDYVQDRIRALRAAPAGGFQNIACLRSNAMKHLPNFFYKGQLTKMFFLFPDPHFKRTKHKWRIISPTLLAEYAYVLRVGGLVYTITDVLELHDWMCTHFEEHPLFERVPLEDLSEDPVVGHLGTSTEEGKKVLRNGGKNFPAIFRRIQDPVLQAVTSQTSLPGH
METTL1/WDR4, sequence (P57081 whole entry partner, species assumed): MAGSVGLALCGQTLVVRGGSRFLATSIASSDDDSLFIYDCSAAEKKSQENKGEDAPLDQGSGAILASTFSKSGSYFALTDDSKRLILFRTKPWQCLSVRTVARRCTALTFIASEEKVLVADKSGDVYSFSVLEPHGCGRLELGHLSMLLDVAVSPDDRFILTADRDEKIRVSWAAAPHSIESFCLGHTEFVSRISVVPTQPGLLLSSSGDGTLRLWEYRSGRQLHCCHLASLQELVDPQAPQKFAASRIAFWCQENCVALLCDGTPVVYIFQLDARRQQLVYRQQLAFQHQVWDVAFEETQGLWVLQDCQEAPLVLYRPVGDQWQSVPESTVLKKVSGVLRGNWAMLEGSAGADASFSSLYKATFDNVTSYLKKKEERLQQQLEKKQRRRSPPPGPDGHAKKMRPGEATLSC
Procedure, shortened: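 Radiometric methyltransfer by METTL1/WDR4 (6.25 nM f.c., 5 min preincubation) at ambient temperature in HEPES pH 7.5, KCl, MgCl2, DTT; started with 25 nM 3′-biotinylated RNA and 60 nM 3H-SAM, run 20 min, quenched with 15 μM cold SAM. Product captured on streptavidin flashplates (2 h, 25° C), counted by scintillation.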

MOLM-13 cells [3] = assay: MOLM-13 96 Hour Cell Proliferation Assay; format: cell-based; conditions: Homo sapiens, MOLM-13, 96 h
Procedure, shortened: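 MOLM-13 cells in RPMI 1640 with 10% FBS were plated overnight at 37 °C, then exposed to compound dilutions at 0.25% DMSO final for 96 h. Viability was read by CellTiter-Glo luminescence, normalised to staurosporine (100% death) and DMSO (0% death) controls, and IC50 was fitted by 4-parameter logistic regression.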

[4] = read-out: METTL3 IC50, METTL3 biochemical assay
[5] = read-out: PRMT5 IC50, PRMT5 biochemical assay
[6] = METTL3 biochemical assay, read-out: METTL3 IC50
[7] = PRMT5 biochemical assay, read-out: PRMT5 IC50
[8] = read-out: METTL1 IC50, METTL1 biochemical assay
[9] = METTL1 biochemical assay, read-out: METTL1 IC50

| Compound | IC50 (METTL16) [nM] | IC50 [1] [nM] | IC50 (MOLM-13 cells [2]) [nM] | IC50 (METTL3/METTL14; [4]) [nM] | IC50 (PRMT5-MEP50; [5]) [nM] | IC50 (METTL1/WDR4) [nM] | IC50 (MOLM-13 cells [3]) [nM] | IC50 (METTL3/METTL14; [6]) [nM] | IC50 (PRMT5-MEP50; [7]) [nM] | IC50 (METTL1/WDR4; [8]) [nM] | IC50 (METTL1/WDR4; [9]) [nM] | IC50 (METTL3/METTL14) [nM] | IC50 (PRMT5-MEP50) [nM] |
| --- | --- | --- | --- | --- | --- | --- | --- | --- | --- | --- | --- | --- | --- |
| CNc1ccc2ccc(OC[C@H]3O[C@@H](n4cc(-c5cn(C)cn5)c5c(N)ncnc54)[C@@H](F)[C@@H]3O)cc2n1 [I-28] | > 1000 | 1000 to 10000 | 1000 to 10000 | < 10 | 100 to 1000 | – | – | – | – | – | – | – | – |
| CNc1ccc2ccc(OC[C@H]3O[C@@H](n4cc(Cl)c5c(N)ncnc54)[C@@H](F)[C@@H]3O)cc2n1 [I-45, (2R,3R,4S,5R)-5-(4-amino-5-chloro-7H-pyrrolo[2,3-d]pyrimidin-7-yl)-4-fluoro-2-(((2-(methylamino)quinolin-7-yl)oxy)methyl)tetrahydrofuran-3-ol] | – | 1000 to 10000 | 1000 to 10000 | – | – | > 1000 | 1000 to 10000 | < 10 | 10 to 100 | – | – | – | – |
| CNc1ccc2ccc(OC[C@H]3O[C@@H](n4cc(Br)c5c(N)ncnc54)[C@@H](F)[C@@H]3O)cc2n1 [I-46] | – | 1000 to 10000 | 1000 to 10000 | – | – | – | < 1000 | < 10 | 10 to 100 | > 1000 | – | – | – |
| CNc1ccc2ccc(OC[C@H]3O[C@@H](n4cc(Cl)c5c(N)ncnc54)C[C@@H]3O)cc2n1 [I-48] | – | 1000 to 10000 | > 10000 | – | – | – | 1000 to 10000 | < 10 | 100 to 1000 | > 1000 | – | – | – |
| CNc1ccc2ccc(CC[C@H]3C[C@@H](n4cc(CO)c5c(N)ncnc54)[C@H](O)[C@@H]3O)cc2n1 [I-52, (1R,2S,3R,5S)-3-[4-amino-5-(hydroxymethyl)-7H-pyrrolo[2,3-d]pyrimidin-7-yl]-5-{2-[2-(methylamino)quinolin-7-yl]ethyl}cyclopentane-1,2-diol] | > 1000 | 1000 to 10000 | – | – | – | > 1000 | – | < 10 | < 10 | – | – | – | – |
| CNc1ccc2ccc(CC[C@H]3C[C@@H](n4cc(C5CCCC5)c5c(N)ncnc54)[C@H](O)[C@@H]3O)cc2n1 [I-55] | – | 1000 to 10000 | 1000 to 10000 | – | – | – | < 1000 | < 10 | < 10 | > 1000 | – | – | – |
| CNc1ccc2ccc(CC[C@H]3C[C@@H](n4cc(C5CCCCC5)c5c(N)ncnc54)[C@H](O)[C@@H]3O)cc2n1 [I-59] | – | 1000 to 10000 | 1000 to 10000 | – | – | – | < 1000 | < 10 | < 10 | > 1000 | – | – | – |
| CN(C)c1ccc2ccc(OC[C@H]3O[C@@H](n4ccc5c(N)ncnc54)[C@H](O)[C@@H]3O)cc2n1 [I-78] | – | > 10000 | > 10000 | – | – | – | 1000 to 10000 | 10 to 100 | 10 to 100 | > 1000 | – | – | – |
| CN(C)c1ccc2ccc(CC[C@H]3C[C@@H](n4ccc5c(N)ncnc54)[C@H](O)[C@@H]3O)cc2n1 [I-98] | – | > 10000 | > 10000 | – | – | – | 1000 to 10000 | 10 to 100 | 10 to 100 | > 1000 | – | – | – |
| Nc1ncnc2c1ccn2[C@@H]1C[C@H](CCc2ccccn2)[C@@H](O)[C@H]1O [I-118] | – | > 10000 | > 10000 | – | – | – | > 10000 | > 1000 | 100 to 1000 | > 1000 | – | – | – |
| CNc1ccc2ccc(OC[C@H]3O[C@@H](n4cc(-c5ccc(C)o5)c5c(N)ncnc54)[C@@H](F)[C@@H]3O)cc2n1 [I-148] | – | < 1000 | < 1000 | < 10 | 100 to 1000 | – | < 1000 | – | – | – | > 1000 | – | – |
| CNc1ccc2ccc(OC[C@H]3O[C@@H](n4cc(-c5cc[nH]n5)c5c(N)ncnc54)[C@@H](F)[C@@H]3O)cc2n1 [I-228] | – | 1000 to 10000 | < 1000 | – | – | – | < 1000 | – | – | – | > 1000 | < 10 | 100 to 1000 |
| CCNc1ccc2ccc(OC[C@H]3O[C@@H](n4cc(Cl)c5c(N)ncnc54)[C@@H](F)[C@@H]3O)cc2n1 [I-234] | – | 1000 to 10000 | 1000 to 10000 | – | – | > 1000 | 1000 to 10000 | < 10 | 10 to 100 | – | – | – | – |
